Activity calls are given as the source filed them. No cut-off for these calls is given here.
Key:
[1] = tested on: SUD4; assay: Upregulation of p27 protein level in human SU-DHL-4 cells at 5 uM preincubated for 48 hrs followed by compound elution and measured after 72 hrs by Western blot analysis; assay type: functional, cell-based
[2] = tested on: SUD4; assay: Upregulation of p21 protein level in human SU-DHL-4 cells at 5 uM preincubated for 48 hrs followed by compound elution and measured after 72 hrs by Western blot analysis; assay type: functional, cell-based
[3] = molecular target: T1, Protein cereblon/B-cell lymphoma 6 protein (Homo sapiens, UniProt Q96SW2+P41182); assay: PROTAC activity at CRBN/BCL6 in BCL6-dependent human SU-DHL-4 cells assessed as induction of BCL6 degradation by measuring degradation rate at 10 uM incubated for 48 hrs by Western blot analysis relative to control; assay type: cell-based
T1 sequence (Q96SW2 whole entry, looked up, other chains not shown): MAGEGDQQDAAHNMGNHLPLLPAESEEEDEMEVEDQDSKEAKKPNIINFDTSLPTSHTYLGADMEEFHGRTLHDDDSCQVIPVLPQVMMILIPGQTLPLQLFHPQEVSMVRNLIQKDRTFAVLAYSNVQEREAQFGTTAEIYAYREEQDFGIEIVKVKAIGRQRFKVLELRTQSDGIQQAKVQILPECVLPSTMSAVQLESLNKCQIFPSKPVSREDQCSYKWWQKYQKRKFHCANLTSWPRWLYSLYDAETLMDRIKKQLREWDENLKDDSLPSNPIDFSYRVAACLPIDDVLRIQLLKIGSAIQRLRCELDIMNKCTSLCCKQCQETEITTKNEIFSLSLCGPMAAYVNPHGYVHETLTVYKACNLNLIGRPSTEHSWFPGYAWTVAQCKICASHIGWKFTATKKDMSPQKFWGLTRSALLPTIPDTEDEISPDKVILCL

[4] = molecular target: T1, Protein cereblon/B-cell lymphoma 6 protein; assay: PROTAC activity at CRBN/BCL6 in BCL6-dependent human SU-DHL-4 cells assessed as induction of BCL6 degradation by measuring degradation rate at 1 uM incubated for 48 hrs by Western blot analysis relative to control; assay type: cell-based
[5] = tested on: SUD4; assay: Antiproliferative activity against BCL6-dependent human SU-DHL-4 cells assessed as inhibition of cell growth at 10 uM measured after 6 days by MTT assay relative to control; assay type: functional; conditions: SU-DHL-4, 144 h, time 6 day
[6] = tested on: SUD4; assay: Antiproliferative activity against BCL6-dependent human SU-DHL-4 cells assessed as inhibition of cell growth at 1 uM measured after 6 days by MTT assay relative to control; assay type: functional; conditions: SU-DHL-4, 144 h, time 6 day
[7] = molecular target: T1, Protein cereblon/B-cell lymphoma 6 protein; assay: PROTAC activity at CRBN/BCL6 in human SU-DHL-4 cells assessed as induction of BCL6 degradation by measuring maximal efficacy incubated for 48 hrs by Western blot analysis relative to control; assay type: cell-based
[8] = tested on: OCI-Ly1; assay: Antiproliferative activity against BCL6-dependent human OCI-Ly1 cells assessed as inhibition in cell growth measured after 6 days by MTT assay; conditions: OCI-Ly1, 144 h
[9] = tested on: DOHH-2; assay: Antiproliferative activity against BCL6-dependent human DOHH-2 cells assessed as inhibition in cell growth measured after 6 days by MTS assay; conditions: DOHH-2, 144 h
[10] = molecular target: T1, Protein cereblon/B-cell lymphoma 6 protein; assay: PROTAC activity at CRBN/BCL6 in human DOHH-2 cells assessed as induction of BCL6 degradation incubated for 48 hrs by Western blot analysis; assay type: cell-based
[11] = tested on: SU-DHL-6; assay: Antiproliferative activity against BCL6-dependent human SU-DHL-6 cells assessed as inhibition in cell growth measured after 6 days by MTT assay; conditions: SU-DHL-6, 144 h
[12] = Cytotoxicity against HEK293T cells assessed as inhibition in cell growth measured after 6 days by MTT assay; assay type: toxicity, cell-based, HEK-293T; conditions: human, HEK293T cells
[13] = molecular target: T1, Protein cereblon/B-cell lymphoma 6 protein; assay: PROTAC activity at CRBN/BCL6 in human DOHH-2 cells assessed as induction of BCL6 degradation by measuring maximal efficacy incubated for 48 hrs by Western blot analysis relative to control; assay type: cell-based
[14] = molecular target: T1, Protein cereblon/B-cell lymphoma 6 protein; assay: PROTAC activity at CRBN/BCL6 in human SU-DHL-4 cells assessed as induction of BCL6 degradation incubated for 48 hrs by Western blot analysis; assay type: cell-based
[15] = Cytotoxicity against human WI-38 VA13 cells assessed as inhibition in cell growth measured after 6 days by MTT assay; assay type: toxicity, cell-based; conditions: WI-38 VA13 cells
[16] = tested on: SUD4; assay: Antiproliferative activity against BCL6-dependent human SU-DHL-4 cells assessed as inhibition in cell growth measured after 6 days by MTT assay; conditions: SU-DHL-4, 144 h
[17] = molecular target: B-cell lymphoma 6 protein (Homo sapiens, UniProt P41182); assay: Binding affinity to fluorescent labeled recombinant BCL-6 BTB domain (unknown origin) assessed as dissociation constant incubated for 10 mins by MST analysis

Row | SMILES | Activity [3] [%] | Activity [4] [%] | also measured
1 | COc1cc(Nc2nc(N3C[C@@H](C)N[C@@H](C)C3)ncc2F)ccc1NC(=O)c1ccc(C2=CCCC2)s1 |  |  | Activity [1]: inactive; Activity [2]: inactive
2 | COc1cc(Nc2nc(N3CCN(CCOCCOCCNc4cccc5c4C(=O)N(C4CCC(=O)NC4=O)C5=O)CC3)ncc2F)ccc1NC(=O)c1ccc(C2=CCCC2)s1 (configuration not stated) | 38.3 | 35.6 | 
3 | COc1cc(Nc2nc(N3CCN(C(=O)CCCCCCNc4cccc5c4C(=O)N(C4CCC(=O)NC4=O)C5=O)CC3)ncc2F)ccc1NC(=O)c1ccc(C2=CCCC2)s1 (configuration not stated) | 1.4 | 22.7 | 
4 | COc1cc(Nc2nc(N3CCN(C(=O)CCOCCNc4cccc5c4CC(C4CCC(=O)NC4=O)C5=O)CC3)ncc2F)ccc1NC(=O)c1ccc(C2=CCCC2)s1 (configuration not stated) | 37 | 11.1 | 
5 | COc1cc(Nc2nc(N3CCN(C(=O)CC4CCN(c5cccc6c5C(=O)N(C5CCC(=O)NC5=O)C6=O)CC4)CC3)ncc2F)ccc1NC(=O)c1ccc(C2=CCCC2)s1 (configuration not stated) | 2.7 | 7.1 | 
6 | COc1cc(Nc2nc(N3CCN(C(=O)CCOCCNc4cc5c(cc4F)C(=O)C(C4CCC(=O)NC4=O)C5=O)CC3)ncc2F)ccc1NC(=O)c1ccc(C2=CCCC2)s1 (configuration not stated) | 0 | 0 | 
7 | COc1cc(Nc2nc(N3CCN(C(=O)CCOCCNc4ccc5c(c4)C(=O)C(C4CCC(=O)NC4=O)C5=O)CC3)ncc2F)ccc1NC(=O)c1ccc(C2=CCCC2)s1 (configuration not stated) | 34 | 36.6 | 
8 | COc1cc(Nc2nc(N3CCN(CCOCCNc4ccc5c(c4)C(=O)C(C4CCC(=O)NC4=O)C5=O)CC3)ncc2F)ccc1NC(=O)c1ccc(C2=CCCC2)s1 (configuration not stated) | 21.6 | 5.2 | 
9 | COc1cc(Nc2nc(N3CCN(CCOCCNc4cccc5c4CC(C4CCC(=O)NC4=O)C5=O)CC3)ncc2F)ccc1NC(=O)c1ccc(C2=CCCC2)s1 (configuration not stated) | 37.1 | 15.7 | 
10 | COc1cc(Nc2nc(N3CCN(CCCCCNc4cccc5c4C(=O)N(C4CCC(=O)NC4=O)C5=O)CC3)ncc2F)ccc1NC(=O)c1ccc(C2=CCCC2)s1 (configuration not stated) | 64 | 58.4 | inhibition at 10 µM [5]: 70.1%; inhibition at 1 µM [6]: 58.7%
11 | COc1cc(Nc2nc(N3CCN(CCOCCOc4cccc5c4C(=O)C(C4CCC(=O)NC4=O)C5=O)CC3)ncc2F)ccc1NC(=O)c1ccc(C2=CCCC2)s1 (configuration not stated) | 26.3 | 13.5 | 
12 | COc1cc(Nc2nc(N3CCN(C(=O)CCOCCOCCNc4cccc5c4C(=O)N(C4CCC(=O)NC4=O)C5=O)CC3)ncc2F)ccc1NC(=O)c1ccc(C2=CCCC2)s1 (configuration not stated) | 48.1 | 28.2 | 
13 | COc1cc(Nc2nc(N3CCN(CCOCCNc4cccc5c4C(=O)N(C4CCC(=O)N(C)C4=O)C5=O)CC3)ncc2F)ccc1NC(=O)c1ccc(C2=CCCC2)s1 (configuration not stated) | 20.7 | 11.9 | Emax [7]: 29.4%; IC50 [8]: > 10 µM; IC50 [9]: > 10 µM; DC50 [10]: > 10 µM; IC50 [11]: > 10 µM; IC50 at 6 days [12]: > 10 µM; Emax [13]: 11.6%; DC50 [14]: > 10 µM; IC50 at 6 days [15]: > 10 µM; IC50 [16]: > 10 µM
14 | COc1cc(Nc2nc(N3CCN(C(=O)CCOCCOCCOCCNc4cccc5c4C(=O)N(C4CCC(=O)NC4=O)C5=O)CC3)ncc2F)ccc1NC(=O)c1ccc(C2=CCCC2)s1 (configuration not stated) | 41.2 | 34.7 | 
15 | COc1cc(Nc2nc(N3CCN(CCCCCCNc4cccc5c4C(=O)N(C4CCC(=O)NC4=O)C5=O)CC3)ncc2F)ccc1NC(=O)c1ccc(C2=CCCC2)s1 (configuration not stated) | 55.8 | 42.9 | 
16 | COc1cc(Nc2nc(N3CCN(C(=O)CCOCC#Cc4cccc5c4CN(C4CCC(=O)NC4=O)C5=O)CC3)ncc2F)ccc1NC(=O)c1ccc(C2=CCCC2)s1 (configuration not stated) | 73.2 | 27.4 | inhibition at 10 µM [5]: 98%; inhibition at 1 µM [6]: 5.7%
17 | COc1cc(Nc2nc(N3CCN(C(=O)CCOCCNc4cccc5c4C(=O)N(C4CCC(=O)NC4=O)C5=O)CC3)ncc2F)ccc1NC(=O)c1ccc(C2=CCCC2)s1 (configuration not stated) | 46.3 | 55.7 | inhibition at 10 µM [5]: 72.9%; inhibition at 1 µM [6]: 47%
18 | COc1cc(Nc2nc(N3CCN(C(=O)CCCCCNc4cccc5c4C(=O)N(C4CCC(=O)NC4=O)C5=O)CC3)ncc2F)ccc1NC(=O)c1ccc(C2=CCCC2)s1 (configuration not stated) | 54.1 | 38 | inhibition at 10 µM [5]: 41.3%; inhibition at 1 µM [6]: 31%
19 | COc1cc(Nc2nc(N3CCN(C(=O)CCOCCOCCOCCOCCNc4cccc5c4C(=O)N(C4CCC(=O)NC4=O)C5=O)CC3)ncc2F)ccc1NC(=O)c1ccc(C2=CCCC2)s1 (configuration not stated) |  | 12.2 | 
20 | COc1cc(Nc2nc(N3CCN(C(=O)CCCCNc4cccc5c4C(=O)N(C4CCC(=O)NC4=O)C5=O)CC3)ncc2F)ccc1NC(=O)c1ccc(C2=CCCC2)s1 (configuration not stated) | 31.7 | 0.1 | 
21 | CC[C@H](C)[C@H](NC(=O)[C@H](CO)NC(=O)[C@H](CCCNC(=N)N)NC(=O)CNC(=O)[C@H](C)NC(=O)[C@H](CCC(=O)O)NC(=O)[C@H](CCCCN)NC(=O)[C@@H](NC(=O)[C@@H](NC(=O)[C@H](C)NC(=O)[C@@H](NC(=O)[C@@H](N)CC(C)C)C(C)C)[C@@H](C)O)C(C)C)C(=O)N[C@@H](Cc1cnc[nH]1)C(=O)N[C@@H](CCC(=O)O)C(=O)N[C@H](C(=O)N1CCC[C@H]1C(=O)N[C@@H](CCCNC(=N)N)C(=O)O)[C@@H](C)CC |  |  | Kd [17]: 30 µM
22 | COc1cc(Nc2nc(N3CCN(CCCCNc4cccc5c4C(=O)N(C4CCC(=O)NC4=O)C5=O)CC3)ncc2F)ccc1NC(=O)c1ccc(C2=CCCC2)s1 (configuration not stated) | 36.3 | 40.6 | 
23 | COc1cc(Nc2nc(N3CCN(C(=O)CCC4CCN(c5cccc6c5C(=O)N(C5CCC(=O)NC5=O)C6=O)CC4)CC3)ncc2F)ccc1NC(=O)c1ccc(C2=CCCC2)s1 (configuration not stated) | 24.1 | 23.1 | 
